{
  "source": "ChEMBL document CHEMBL4507259",
  "about": "(2021)",
  "key": {"[1]": {"biological_target": "Prostaglandin G/H synthase 2 (Homo sapiens) (UniProt P35354)", "sequence (P35354 whole entry)": "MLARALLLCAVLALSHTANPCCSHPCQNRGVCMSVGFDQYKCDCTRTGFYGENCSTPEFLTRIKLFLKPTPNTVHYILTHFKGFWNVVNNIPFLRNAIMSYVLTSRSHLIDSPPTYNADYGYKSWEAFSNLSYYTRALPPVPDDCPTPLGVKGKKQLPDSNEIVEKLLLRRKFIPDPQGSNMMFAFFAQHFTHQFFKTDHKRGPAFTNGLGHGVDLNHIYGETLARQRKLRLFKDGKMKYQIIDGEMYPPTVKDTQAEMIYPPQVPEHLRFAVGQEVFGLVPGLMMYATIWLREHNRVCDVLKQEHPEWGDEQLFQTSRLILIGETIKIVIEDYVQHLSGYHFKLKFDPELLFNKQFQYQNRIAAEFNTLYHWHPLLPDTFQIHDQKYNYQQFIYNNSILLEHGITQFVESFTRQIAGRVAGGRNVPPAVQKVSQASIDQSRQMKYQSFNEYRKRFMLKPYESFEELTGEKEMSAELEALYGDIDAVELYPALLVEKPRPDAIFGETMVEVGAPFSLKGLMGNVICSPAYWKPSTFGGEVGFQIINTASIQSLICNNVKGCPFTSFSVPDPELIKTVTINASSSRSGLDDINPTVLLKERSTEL", "test": "COX2(h) CEREP ligand profiling", "settings": "Compound concentration 10.0 uM"}, "[2]": {"test_system": "NCI-H1693", "test": "H1693 cell line Proliferation assay", "format": "functional, Homo sapiens", "settings": "Compound concentration 10 uM; time 3 day"}, "[3]": {"test_system": "MDA-MB-157", "test": "MDA_MB_157 cell line Proliferation assay", "format": "functional, Homo sapiens", "settings": "Compound concentration 10 uM; time 5 day"}, "[4]": {"test_system": "BT-20", "test": "BT-20 cell line Proliferation assay", "format": "functional, Homo sapiens", "settings": "Compound concentration 10 uM; time 5 day"}, "[5]": {"biological_target": "Histone acetyltransferase type B catalytic subunit (Homo sapiens) (UniProt O14929)", "sequence (O14929 2-419 limits assumed)": "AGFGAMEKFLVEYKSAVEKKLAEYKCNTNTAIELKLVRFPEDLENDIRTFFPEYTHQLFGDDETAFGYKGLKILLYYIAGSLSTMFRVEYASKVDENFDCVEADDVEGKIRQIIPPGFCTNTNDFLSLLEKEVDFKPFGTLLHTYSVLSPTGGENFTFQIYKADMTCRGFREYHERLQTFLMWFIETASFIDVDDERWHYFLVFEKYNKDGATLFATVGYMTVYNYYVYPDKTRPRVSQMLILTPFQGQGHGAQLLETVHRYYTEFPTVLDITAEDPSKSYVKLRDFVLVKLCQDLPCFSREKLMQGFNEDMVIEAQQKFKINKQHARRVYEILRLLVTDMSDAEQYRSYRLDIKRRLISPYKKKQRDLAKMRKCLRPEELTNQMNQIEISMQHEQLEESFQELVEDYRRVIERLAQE", "test": "HAT1 (HAT) CEREP ligand profiling", "settings": "Compound concentration 10.0 uM"}, "[6]": {"test_system": "MeWo", "test": "MeWo cell line Proliferation assay", "format": "functional, Homo sapiens", "settings": "Compound concentration 10 uM; time 5 day"}, "[7]": {"test_system": "RL", "test": "RL cell line Proliferation assay", "format": "functional, Homo sapiens", "settings": "Compound concentration 10 uM; time 3 day"}, "[8]": {"test_system": "NCI-H522", "test": "H522 cell line Proliferation assay", "format": "functional, Homo sapiens", "settings": "Compound concentration 10 uM; time 3 day"}, "[9]": {"test_system": "RCK8", "test": "RCK8 cell line Proliferation assay", "format": "functional, Homo sapiens", "settings": "Compound concentration 10 uM; time 3 day"}, "[10]": {"test_system": "SK-MEL-2", "test": "SKMEL2 cell line Proliferation assay", "format": "functional, Homo sapiens", "settings": "Compound concentration 10 uM; time 5 day"}, "[11]": {"test_system": "Malme-3M", "test": "Malme3M cell line Proliferation assay", "format": "functional, Homo sapiens", "settings": "Compound concentration 10 uM; time 5 day"}, "[12]": {"test_system": "4T1", "test": "4T1 (mouse) cell line Proliferation assay", "format": "functional", "settings": "Compound concentration 10 uM; time 5 day"}, "[13]": {"test_system": "GA-10", "test": "GA10 cell line Proliferation assay", "format": "functional, Homo sapiens", "settings": "Compound concentration 10 uM; time 3 day"}, "[14]": {"test_system": "WM 266-4", "test": "WM2664 cell line Proliferation assay", "format": "functional, Homo sapiens", "settings": "Compound concentration 10 uM; time 5 day"}, "[15]": {"test_system": "VCaP", "test": "VCaP cell line Proliferation assay", "format": "functional, Homo sapiens", "settings": "Compound concentration 10 uM; time 5 day"}, "[16]": {"test_system": "Granta-519", "test": "Granta 519 cell line Proliferation assay", "format": "functional, Homo sapiens", "settings": "Compound concentration 10 uM; time 3 day"}, "[17]": {"test_system": "HCC4006", "test": "HCC4006 cell line Proliferation assay", "format": "functional, Homo sapiens", "settings": "Compound concentration 10 uM; time 3 day"}, "[18]": {"biological_target": "5-hydroxytryptamine receptor 7 (Homo sapiens) (UniProt P34969)", "sequence (P34969 whole entry)": "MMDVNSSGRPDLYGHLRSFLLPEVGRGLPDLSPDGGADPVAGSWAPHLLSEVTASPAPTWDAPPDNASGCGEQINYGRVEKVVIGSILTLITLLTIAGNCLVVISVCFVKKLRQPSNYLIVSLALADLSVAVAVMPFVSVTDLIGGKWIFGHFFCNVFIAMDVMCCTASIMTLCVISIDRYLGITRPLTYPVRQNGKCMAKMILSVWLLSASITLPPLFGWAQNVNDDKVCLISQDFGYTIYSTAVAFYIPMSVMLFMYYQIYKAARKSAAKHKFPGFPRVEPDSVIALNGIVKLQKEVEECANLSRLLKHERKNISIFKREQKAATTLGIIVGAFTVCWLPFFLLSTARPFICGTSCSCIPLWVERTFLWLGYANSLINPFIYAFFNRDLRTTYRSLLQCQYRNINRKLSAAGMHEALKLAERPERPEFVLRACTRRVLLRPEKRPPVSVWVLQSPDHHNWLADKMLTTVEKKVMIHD", "settings": "Compound concentration 10.0 uM"}, "[19]": {"biological_target": "Adenosine receptor A3 (Homo sapiens) (UniProt P0DMS8)", "sequence (P0DMS8 whole entry)": "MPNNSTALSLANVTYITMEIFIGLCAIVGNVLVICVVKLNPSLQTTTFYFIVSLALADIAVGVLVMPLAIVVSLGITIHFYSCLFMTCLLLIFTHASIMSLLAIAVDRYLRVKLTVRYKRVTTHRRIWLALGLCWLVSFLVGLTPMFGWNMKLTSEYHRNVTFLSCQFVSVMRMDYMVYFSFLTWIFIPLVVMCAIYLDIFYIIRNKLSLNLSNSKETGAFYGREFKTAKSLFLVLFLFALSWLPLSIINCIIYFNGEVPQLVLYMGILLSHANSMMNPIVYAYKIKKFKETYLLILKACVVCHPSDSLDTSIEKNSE", "test": "A3 (h) CEREP ligand profiling", "settings": "filed as agonist, Compound concentration 10.0 uM"}, "[20]": {"test_system": "OCI-Ly3", "test": "OCI Ly3 cell line Proliferation assay", "format": "functional, Homo sapiens", "settings": "Compound concentration 10 uM; time 3 day"}, "[21]": {"test_system": "NCI-H211", "test": "H211 cell line Proliferation assay", "format": "functional, Homo sapiens", "settings": "Compound concentration 10 uM; time 4 day"}, "[22]": {"test_system": "MDA-MB-436", "test": "MDA_MB_436 cell line Proliferation assay", "format": "functional, Homo sapiens", "settings": "Compound concentration 10 uM; time 5 day"}, "[23]": {"test_system": "SU-DHL-8", "test": "SuDHL8 cell line Proliferation assay", "format": "functional, Homo sapiens", "settings": "Compound concentration 10 uM; time 3 day"}, "[24]": {"test_system": "THP-1", "test": "THP-1 cell line Proliferation assay", "format": "functional, Homo sapiens", "settings": "Compound concentration 10 uM; time 3 day"}, "[25]": {"biological_target": "Histone acetyltransferase KAT5 (Homo sapiens) (UniProt Q92993)", "sequence (Q92993 whole entry, looked up)": "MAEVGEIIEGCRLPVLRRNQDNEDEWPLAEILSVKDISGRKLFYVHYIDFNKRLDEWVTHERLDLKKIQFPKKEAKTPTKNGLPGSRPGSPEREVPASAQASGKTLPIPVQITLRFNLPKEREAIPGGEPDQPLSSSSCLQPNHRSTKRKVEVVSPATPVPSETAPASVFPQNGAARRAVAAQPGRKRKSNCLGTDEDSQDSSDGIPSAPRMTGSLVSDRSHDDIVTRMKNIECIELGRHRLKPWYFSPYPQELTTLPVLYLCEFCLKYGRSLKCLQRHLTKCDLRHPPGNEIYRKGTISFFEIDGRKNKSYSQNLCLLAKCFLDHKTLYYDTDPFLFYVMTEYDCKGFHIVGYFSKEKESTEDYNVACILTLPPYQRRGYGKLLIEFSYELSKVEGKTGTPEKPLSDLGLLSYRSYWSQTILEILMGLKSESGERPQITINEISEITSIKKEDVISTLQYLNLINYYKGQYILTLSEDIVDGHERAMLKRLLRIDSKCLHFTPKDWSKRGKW", "test": "TIP60 (HAT) CEREP ligand profiling", "settings": "Compound concentration 10.0 uM"}, "[26]": {"test_system": "CA46", "test": "CA46 cell line Proliferation assay", "format": "functional, Homo sapiens", "settings": "Compound concentration 10 uM; time 3 day"}, "[27]": {"test_system": "OCI-AML2", "test": "OCI-AML2 cell line Proliferation assay", "format": "functional, Homo sapiens", "settings": "Compound concentration 10 uM; time 3 day"}, "[28]": {"test_system": "NCI-H69", "test": "H69 cell line Proliferation assay", "format": "functional, Homo sapiens", "settings": "Compound concentration 10 uM; time 4 day"}, "[29]": {"test_system": "DB", "test": "DB cell line Proliferation assay", "format": "functional, Homo sapiens", "settings": "Compound concentration 10 uM; time 3 day"}, "[30]": {"biological_target": "Cyclin-dependent kinase 9 (Homo sapiens) (UniProt P50750)", "sequence (P50750 whole entry)": "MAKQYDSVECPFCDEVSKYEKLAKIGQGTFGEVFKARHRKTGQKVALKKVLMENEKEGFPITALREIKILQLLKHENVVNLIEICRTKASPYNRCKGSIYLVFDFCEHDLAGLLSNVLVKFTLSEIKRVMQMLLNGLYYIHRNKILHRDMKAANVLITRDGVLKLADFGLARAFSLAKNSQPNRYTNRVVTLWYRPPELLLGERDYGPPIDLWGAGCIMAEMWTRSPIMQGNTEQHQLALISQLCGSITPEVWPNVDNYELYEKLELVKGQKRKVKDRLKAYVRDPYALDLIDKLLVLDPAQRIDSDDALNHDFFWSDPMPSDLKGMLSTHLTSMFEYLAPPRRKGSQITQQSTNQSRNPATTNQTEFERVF", "settings": "Compound concentration 1000.0 nM"}, "[31]": {"biological_target": "Prostaglandin G/H synthase 1 (Homo sapiens) (UniProt P23219)", "sequence (P23219 whole entry)": "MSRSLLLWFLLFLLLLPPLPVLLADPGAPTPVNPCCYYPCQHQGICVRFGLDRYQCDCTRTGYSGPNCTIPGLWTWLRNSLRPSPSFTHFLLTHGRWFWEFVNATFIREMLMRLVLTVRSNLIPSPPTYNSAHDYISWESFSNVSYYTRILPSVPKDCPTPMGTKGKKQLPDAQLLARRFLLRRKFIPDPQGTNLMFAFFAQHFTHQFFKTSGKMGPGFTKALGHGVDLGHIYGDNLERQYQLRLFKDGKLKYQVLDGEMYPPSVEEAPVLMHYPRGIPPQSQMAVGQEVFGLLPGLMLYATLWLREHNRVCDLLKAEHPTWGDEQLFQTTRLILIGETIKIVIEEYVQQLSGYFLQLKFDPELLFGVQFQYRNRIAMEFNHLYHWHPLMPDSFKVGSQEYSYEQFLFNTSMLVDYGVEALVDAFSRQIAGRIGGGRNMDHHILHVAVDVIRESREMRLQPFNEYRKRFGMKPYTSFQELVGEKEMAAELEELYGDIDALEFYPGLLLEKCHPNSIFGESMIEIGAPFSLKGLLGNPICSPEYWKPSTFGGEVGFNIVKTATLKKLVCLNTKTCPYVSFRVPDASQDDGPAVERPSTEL", "test": "COX1(h) CEREP ligand profiling", "settings": "Compound concentration 10.0 uM"}, "[32]": {"biological_target": "Mu-type opioid receptor (Homo sapiens) (UniProt P35372)", "sequence (P35372 whole entry)": "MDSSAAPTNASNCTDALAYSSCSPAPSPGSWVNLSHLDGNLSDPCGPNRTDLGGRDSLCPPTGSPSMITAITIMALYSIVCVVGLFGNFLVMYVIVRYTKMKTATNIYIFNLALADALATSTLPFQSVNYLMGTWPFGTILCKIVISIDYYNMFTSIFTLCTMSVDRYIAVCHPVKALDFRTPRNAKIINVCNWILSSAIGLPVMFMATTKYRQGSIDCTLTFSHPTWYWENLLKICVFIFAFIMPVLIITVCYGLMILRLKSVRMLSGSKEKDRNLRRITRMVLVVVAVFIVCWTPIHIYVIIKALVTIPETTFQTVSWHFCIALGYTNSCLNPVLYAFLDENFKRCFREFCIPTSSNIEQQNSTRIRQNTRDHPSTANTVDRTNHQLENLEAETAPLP", "settings": "Compound concentration 10.0 uM"}, "[33]": {"biological_target": "Homeodomain-interacting protein kinase 1 (Homo sapiens) (UniProt Q86Z02)", "sequence (Q86Z02 whole entry, looked up)": "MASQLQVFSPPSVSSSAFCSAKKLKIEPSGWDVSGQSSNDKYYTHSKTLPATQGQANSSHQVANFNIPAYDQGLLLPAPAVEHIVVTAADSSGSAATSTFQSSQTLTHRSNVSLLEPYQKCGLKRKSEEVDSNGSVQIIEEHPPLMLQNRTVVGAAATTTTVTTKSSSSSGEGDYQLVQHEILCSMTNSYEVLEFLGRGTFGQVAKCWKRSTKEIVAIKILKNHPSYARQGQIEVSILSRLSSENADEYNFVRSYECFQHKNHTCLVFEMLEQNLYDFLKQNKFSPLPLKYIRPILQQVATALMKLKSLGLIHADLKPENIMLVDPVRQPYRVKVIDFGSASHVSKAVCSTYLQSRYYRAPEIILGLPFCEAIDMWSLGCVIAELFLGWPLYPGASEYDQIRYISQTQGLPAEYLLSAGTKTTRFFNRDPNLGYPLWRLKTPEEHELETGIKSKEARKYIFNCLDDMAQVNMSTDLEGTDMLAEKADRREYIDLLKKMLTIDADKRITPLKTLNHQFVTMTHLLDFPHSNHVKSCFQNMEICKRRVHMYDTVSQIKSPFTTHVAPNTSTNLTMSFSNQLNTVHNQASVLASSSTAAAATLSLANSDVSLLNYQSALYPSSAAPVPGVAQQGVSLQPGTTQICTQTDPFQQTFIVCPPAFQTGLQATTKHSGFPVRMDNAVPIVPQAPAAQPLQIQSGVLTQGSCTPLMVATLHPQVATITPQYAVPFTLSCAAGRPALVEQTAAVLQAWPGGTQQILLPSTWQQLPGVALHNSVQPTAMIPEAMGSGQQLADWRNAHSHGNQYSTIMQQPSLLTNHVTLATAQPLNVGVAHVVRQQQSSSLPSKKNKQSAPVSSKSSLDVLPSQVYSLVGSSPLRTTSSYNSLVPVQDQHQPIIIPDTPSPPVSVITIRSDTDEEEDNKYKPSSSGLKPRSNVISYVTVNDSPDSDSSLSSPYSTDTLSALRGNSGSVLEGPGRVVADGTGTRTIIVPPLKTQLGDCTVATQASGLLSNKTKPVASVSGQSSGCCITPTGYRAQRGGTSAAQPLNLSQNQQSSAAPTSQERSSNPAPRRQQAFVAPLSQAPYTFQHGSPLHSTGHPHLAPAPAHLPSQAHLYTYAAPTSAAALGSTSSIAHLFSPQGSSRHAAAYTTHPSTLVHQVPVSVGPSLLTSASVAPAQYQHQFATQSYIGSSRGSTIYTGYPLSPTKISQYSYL", "settings": "Compound concentration 1000.0 nM"}},
  "data": [
    {"smiles": "CNC(=O)Nc1ccc2c(c1)CC[C@@]21OC(=O)N(CC(=O)N(Cc2ccc(F)cc2)[C@@H](C)C(F)(F)F)C1=O", "note": "[A-485]", "values": [
      {"measurement": "inhibition", "setting": "[1]", "result": 11, "unit": "%"},
      {"measurement": "Cell Proliferation EC50", "setting": "[2]", "result": 2367, "unit": "nM"},
      {"measurement": "Cell Proliferation EC50", "setting": "[3]", "result": 4592, "unit": "nM"},
      {"measurement": "Cell Proliferation EC50", "setting": "[4]", "result": 336.5, "unit": "nM"},
      {"measurement": "inhibition", "setting": "[5]", "result": -1.9, "unit": "%"},
      {"measurement": "Cell Proliferation EC50", "setting": "[6]", "result": 2427, "unit": "nM"},
      {"measurement": "Cell Proliferation EC50", "setting": "[7]", "result": 1047, "unit": "nM"},
      {"measurement": "Cell Proliferation EC50", "setting": "[8]", "result": 3517, "unit": "nM"},
      {"measurement": "Cell Proliferation EC50", "setting": "[9]", "result": 589.3, "unit": "nM"},
      {"measurement": "Cell Proliferation EC50", "setting": "[10]", "result": ">10000", "unit": "nM"},
      {"measurement": "Cell Proliferation EC50", "setting": "[11]", "result": 2687, "unit": "nM"},
      {"measurement": "Cell Proliferation EC50", "setting": "[12]", "result": ">10000", "unit": "nM"},
      {"measurement": "Cell Proliferation EC50", "setting": "[13]", "result": 1059, "unit": "nM"},
      {"measurement": "Cell Proliferation EC50", "setting": "[14]", "result": 1914, "unit": "nM"},
      {"measurement": "Cell Proliferation EC50", "setting": "[15]", "result": 40, "unit": "nM"},
      {"measurement": "Cell Proliferation EC50", "setting": "[16]", "result": 3280, "unit": "nM"},
      {"measurement": "Cell Proliferation EC50", "setting": "[17]", "result": 4640, "unit": "nM"},
      {"measurement": "inhibition", "setting": "[18]", "result": 7.83, "unit": "%"},
      {"measurement": "inhibition", "setting": "[19]", "result": 40, "unit": "%"},
      {"measurement": "Cell Proliferation EC50", "setting": "[20]", "result": 489.2, "unit": "nM"},
      {"measurement": "Cell Proliferation EC50", "setting": "[21]", "result": 1500, "unit": "nM"},
      {"measurement": "Cell Proliferation EC50", "setting": "[22]", "result": ">10000", "unit": "nM"},
      {"measurement": "Cell Proliferation EC50", "setting": "[23]", "result": 540, "unit": "nM"},
      {"measurement": "Cell Proliferation EC50", "setting": "[24]", "result": 3510, "unit": "nM"},
      {"measurement": "inhibition", "setting": "[25]", "result": -1.9, "unit": "%"},
      {"measurement": "Cell Proliferation EC50", "setting": "[26]", "result": 480.9, "unit": "nM"},
      {"measurement": "Cell Proliferation EC50", "setting": "[27]", "result": 2030, "unit": "nM"},
      {"measurement": "Cell Proliferation EC50", "setting": "[28]", "result": ">10000", "unit": "nM"},
      {"measurement": "Cell Proliferation EC50", "setting": "[29]", "result": 772.7, "unit": "nM"}
    ]},
    {"smiles": "CNC(=O)Nc1ccc2c(c1)[C@@]1(CC2)OC(=O)N(CC(=O)N(Cc2ccc(F)cc2)[C@@H](C)C(F)(F)F)C1=O", "note": "[A-486]", "values": [
      {"measurement": "residual activity", "setting": "[30]", "result": 91, "unit": "%"},
      {"measurement": "inhibition", "setting": "[31]", "result": -5, "unit": "%"},
      {"measurement": "inhibition", "setting": "[32]", "result": -5.11, "unit": "%"},
      {"measurement": "residual activity", "setting": "[33]", "result": 78, "unit": "%"}
    ]}
  ]
}
